In patent US8815946B2, “Inhibition of proliferation and fibrotic response of activated corneal stromal cells” (University of Pittsburgh—of the Commonwealth System of …, priority 2008, dated 2014):

Key:
[1] = system: human corneal stromal cells; experiment: Toxicity to cultured human corneal stromal cells; type: cell-based; conditions: possibly due to low pH of the culture medium
Protocol: Higher than 20 mM concentrations were toxic to the cells, possibly due to the low pH of the culture medium resulting from high EP concentrations.

α-SMA = experiment: Western blot analyses of α-SMA, human corneal stromal cells; type: cell-based
Protocol: FIG. 5. Western blot analyses of α-SMA. Human corneal stromal cells in P2 growing in DMEM/F12 with 10% FBS were subcultured into 60 mm tissue culture dishes. After 24 hrs of incubation, the media were replaced with DMEM/F12 medium containing 1% FBS and TGF-β1 with or without (control) different concentrations of EP as indicated and incubated for two and four days (media were changed every 24 hours). The cells were extracted in RIPA buffer and the extracts containing 5 μg of total proteins were loaded per lane for Western blot analysis.
Keratocytes or fibroblasts grown under different culture conditions were extracted in RIPA buffer (9.1 mM dibasic sodium phosphate, 1.7 mM monobasic sodium phosphate, 150 mM NaCl, pH, 7.4, 1% Nonidet P-40, 0.5% sodium deoxycholate, 0.1% SDS, 0.03 TIU/mL aprotinin, 1 mM sodium orthovanadate, and 100 μg/mL phenylmethylsulfonyl fluoride (PMSF)). Aliquots of cell extracts containing 50 or 100 μg protein were subjected to SDS-PAGE. […] Immunoreactive bands were detected using chemiluminescence Western chemiluminescence reagents. […]

GR-1 neutrophils = experiment: Mouse corneal wound model, FACS with neutrophil marker GR-1; type: in vivo, Mus musculus strain C57; conditions: day 2 post-wounding
Source text: (§1) A mouse model of corneal wound healing and inflammation induced by lipopolysacharide (LPS) was used to test the effect of EP. Khatari et al., Invest. Opthalmol. Vis. Sci. (2002) 43:2278-2284. Briefly, mice (Mus musculus strain C57, age approx. 2 months) were obtained from Charles River Laboratories in accordance with institutional protocols and divided into the following treatment groups (with 3 samples in each group):
(§2) Prior to wounding, all mice were anesthetized with an intraperitoneal injection of 50 mg/kg ketamine with 5 mg/kg xylazine. Topical anesthesia was further achieved with an additional 1 drop of 0.5% proparacaine per eye. Once the animal was sufficiently anesthetized, a corneal wound was constructed in each eye using a sterile 26-gauge needle that penetrated the epithelium and the superficial layers of the stroma. This linear scratch extended from the medial to lateral canthus (FIG. 12). 10 μg of the bacterial super-antigen LPS (Pseudomonas aeruginosa lipopolysaccharide, Sigma) was applied to the wound using a 10 μl pipette and allowed to penetrate the cornea for 5 minutes. Addition of bacterial endotoxin ensured a robust inflammatory response.
The wound was then washed with phosphate buffered saline (PBS/non-pyrogenic dH2O). […] The delivery and concentration of EP was determined according to Devamanoharan et al. (1999); 200(1-2):103-09. […]

cornea = experiment: Mouse corneal wound healing and LPS inflammation model, confocal microscopy of corneal thickness and morphology; type: in vivo, Mus musculus strain C57
Source text: as §1, §2
The wound was then washed with phosphate buffered saline (PBS/non-pyrogenic dH2O). Following the wash, the EP treatment groups received a 10 μl drop of 5% EP in PBS buffered to physiological pH with HEPES while the control group received PBS alone. Drops were applied to the corneal wound using a pipette and the mice were held by hand in such a way as to retain the drops on the eye for approximately 2 minutes. The delivery and concentration of EP was determined according to Devamanoharan et al. (1999); 200(1-2):103-09. […] Considering this quick absorption with the elimination half-life of EP, which is approximately 90 minutes, EP (500 mM) was applied every 90 minutes over the span of 12 hours during each day, followed by 12 hours of treatment overnight.
Animals were sacrificed and eyes harvested for analysis at 1 and 2 days post-wounding. After sacrificing, but prior to harvesting, eyes were imaged using the NIDEK CONFOSCAN 3® confocal microscope to analyze the morphology of the intact cornea. The images were later reconstructed into three-dimensional images in order to observe gross morphology, measure corneal thickness and light scattering which indicate edema and hypercellularity respectively.

[2] = system: type III collagen, tenascin and fibronectin; experiment: Western blot of TGF-β1 activated rabbit corneal keratocytes: type III collagen, tenascin, fibronectin; type: cell-based; conditions: TGF-β1 (10 ng/ml)+1% FBS, two days, compared to controls with no treatment
Protocol: FIGS. 19A and 19B. Western blot analyses: Rabbit corneal keratocytes were isolated and cultured in serum-free DMEM/F12 into 60 mm tissue culture dishes. After 24 hrs of incubation, the media were replaced with DMEM/F12 medium containing TGF-β1(10 ng/ml)+1% FBS without (control) or with EP or EP-derivatives for two days. The cells were extracted in RIPA buffer and the extracts containing 5 μg of total proteins were loaded per lane for Western blot analysis.
Keratocytes or fibroblasts grown under different culture conditions were extracted in RIPA buffer (9.1 mM dibasic sodium phosphate, 1.7 mM monobasic sodium phosphate, 150 mM NaCl, pH, 7.4, 1% Nonidet P-40, 0.5% sodium deoxycholate, 0.1% SDS, 0.03 TIU/mL aprotinin, 1 mM sodium orthovanadate, and 100 μg/mL phenylmethylsulfonyl fluoride (PMSF)). Aliquots of cell extracts containing 50 or 100 μg protein were subjected to SDS-PAGE. Protein bands on SDS-PAGE were electrophoretically transferred to IMMOBILON-P™ membrane (Millipore Corp., Bedford, Mass.), stained with 0.1% Coomassie blue 250 in 40% methanol/1% acetic acid for 1 minute, destained one to three times with 50% methanol/1% acetic acid, scanned for densitometric comparisons of relative concentrations of proteins per lane, destained with methanol, and subjected to Western blot analysis. Immunoreactive bands were detected using chemiluminescence Western chemiluminescence reagents.
As described in Example 1, corneal stromal cells were isolated from rabbit corneas and cultured using the same procedures. The keratocytes in serum free media were treated with b-FGF (40 ng/ml)+HS (5 μg/ml) with or without 15 mM EP or 1, 2.5 or 5 mM following EP derivatives: 2-oxopropionic acid 3-methoxyphenyl ester, 2-oxopropionic acid 2-ethoxyethyl ester, 2-oxopropionic acid 2-chloroethyl ester, 2-oxopropionic acid isopropyl ester, 2-oxopropionic acid butyl ester, 2-oxopropionic acid p-tolyl ester, 2-oxopropionic acid tert-butyl ester. […] The relative levels of the expression of specific proteins were analyzed by Western blot analyses of the cell lysates as described supra.

[3] = 1 day post-wounding, topical 5% EP every 90 minutes

CCOC(=O)C(C)=O [ethyl pyruvate]
concentrations toxic to the cells [1]: Higher than 20 mM | EP concentration with highest downregulation of α-SMA (α-SMA; TGF-β1): 20 mM | TGF-β1 induced expression of α-SMA (Western blot) (α-SMA; two and four days, concentration dependent): down-regulated | neutrophils (GR-1) by FACS (GR-1 neutrophils): 61.00±42.53 | light scattering within the stromal layer (qualitative) (cornea; 1 day post-wounding): dark and quiet stroma | stromal thickness (cornea; [3]): 89-100 μm | total corneal thickness (cornea; [3]): 194-207 μm | corneal morphology / light scattering (qualitative) (cornea; 2 days post-wounding): normal in morphology | stromal thickness (cornea; 2 days post-wounding): 80-85 μm | total corneal thickness (cornea; 2 days post-wounding): 142-154 μm | levels of type III collagen, tenascin and fibronectin (Western blot) [2]: reduced levels
